We go through 32 compounds from patent US11001564B2, “Substituted chromane-8-carboxamide compounds and analogues thereof, and methods using same” (priority 2016, dated 2021).

Structures are written as SMILES. pEC50: −log10 of the molar value.

In one test the test system is HBV rcDNA in HepDE19 cells. The test can be described thus: HepDE19 assay with bDNA quantitation of HBV rcDNA. The settings on record: HepDE19 cells, 7 day incubation, rcDNA by Quantigene 2.0 bDNA assay; read-out: DE-19 bDNA EC50. Type of test: cell-based, hepatitis B virus (HBV). Here is the method: HepDE19 Assay with bDNA Quantitation of HBV rcDNA:
HepDE19 cell culture system is a HepG2 (human hepatocarcinoma) derived cell line that supports HBV DNA replication and cccDNA formation in a tetracycline (Tet)-regulated manner and produces HBV rcDNA and a detectable reporter molecule dependent on the production and maintenance of cccDNA (Guo, et al., 2007, J. Virol. 81:12472-12484).
HepDE19 (50,000 cells/well) were plated in 96 well collagen-coated tissue-culture treated microtiter plates in DMEM/F12 medium supplemented with 10% fetal bovine serum, 1% penicillin-streptomycin and 1 μg/mL tetracycline and incubated in a humidified incubator at 37° C. and 5% CO2 overnight. Next day, the cells were switched to fresh medium without tetracycline and incubated for 4 hours at 37° C. and 5% CO2. The cells were treated with fresh Tet-free medium with compounds at concentrations starting at 25 μM and a serial, ½ log, 8-point, titration series in duplicate. The final DMSO concentration in the assay was 0.5%. The plates were incubated for 7 days in a humidified incubator at 37° C. and 5% CO2. Following a 7 day-incubation, the level of rcDNA present in the inhibitor-treated wells was measured using a Quantigene 2.0 bDNA assay kit (Affymetrix, Santa Clara, Calif.) with HBV specific custom probe set and manufacturers instructions. Concurrently, the effect of compounds on cell viability was assessed using replicate plates, plated at a density of 5,000 cells/well and incubated for 4 days, to determine the ATP content as a measure of cell viability using the cell-titer glo reagent (CTG; Promega Corporation, Madison, Wis.) as per manufacturer's instructions. The plates were read using a Victor luminescence plate reader (PerkinElmer Model 1420 Multilabel counter) and the relative luminescence units (RLU) data generated from each well was calculated as % inhibition of the untreated control wells and analyzed using XL-Fit module in Microsoft Excel to determine EC50 and EC90 (bDNA) and CC50 (CTG) values using a 4-parameter curve fitting algorithm.
Representative compounds of the invention were tested for their ability to inhibit formation of relaxed circular DNA (rcDNA) in a HepDE19 assay, as described elsewhere herein.
Turning to `O=C(N[C@H]1CCOc2c(C(=O)Nc3ccc(F)c(F)c3)cccc21)OCC1CCCNC1` (single isomer, unassigned) [Compound 94], the pEC50 was 4.66.

With `CN1CCCC(COC(=O)N[C@H]2CCOc3c(C(=O)Nc4ccc(F)c(F)c4)cccc32)C1` (single isomer, unassigned) [Compound 99], the pEC50 was 4.60.

Consider `CN1CCC(NC(=O)OCc2ccccn2)c2cccc(C(=O)Nc3ccc(F)c(Cl)c3)c21` (single isomer, unassigned) [Compound 183, Pyridin-2-ylmethyl (8-((3-chloro-4-fluorophenyl)carbamoyl)-1-methyl-1,2,3,4-tetrahydroquinolin-4-yl)carbamate], for which the pEC50 was 6.14.

Take `CNC(=O)CC1CCOc2c(C(=O)Nc3ccc(F)c(F)c3)cccc21` (single isomer, unassigned) [Compound 132, N-(3,4-difluorophenyl)-4-(2-(methylamino)-2-oxoethyl) chromane-8-carboxamide]: the pEC50 is 4.68.

Still in this test, the particulars now being: Hepatitis B virus, HepDE19, 168 h, HepDE19 cells, 7 day incubation, rcDNA by Quantigene 2.0 bDNA assay; read-out: DE-19 bDNA EC50.
Turning to `O=C(NC1CCNc2c(C(=O)Nc3ccc(F)c(F)c3)cccc21)OCc1ccccn1` (centres unmarked) [Compound 175, pyridin-2-ylmethyl (8-((3,4-difluorophenyl)carbamoyl)-1,2,3,4-tetrahydroquinolin-4-yl)carbamate], the negative logarithm of the EC50 (pEC50) is 4.92.

Consider `O=C(Nc1ccc(F)c(F)c1)c1cccc2c1OCCC2c1cccnc1` (centres unmarked) [Compound 63, N-(3,4-difluorophenyl)-4-(pyridin-3-yl)chromane-8-carboxamide], for which the pEC50 was 4.85.

With `CC(=O)N[C@H]1CCOc2c(C(=O)Nc3ccc(F)c(C)c3)ccc(F)c21` [Compound 121, (4S)-4-Acetamido-5-fluoro-N-(4-fluoro-3-methylphenyl)-3,4-dihydro-2H-1-benzopyran-8-carboxamide], the negative-log EC50 (pEC50) is 6.21.

`Cc1cc(NC(=O)c2ccc(F)c3c2OCC[C@@H]3NC(=O)OCc2ccccn2)ccc1F` [Compound 113, Pyridin-2-ylmethyl (S)-(5-fluoro-8-((4-fluoro-3-methylphenyl)carbamoyl)chroman-4-yl)carbamate]: the pEC50 was 6.25.

In the case of `O=C(N[C@H]1CCOc2c(C(=O)Nc3ccc(F)c(Cl)c3)ccc(F)c21)OCCc1ccccn1` [Compound 153, 2-(Pyridin-2-yl)ethyl (S)-(8-((3-chloro-4-fluorophenyl)carbamoyl)-5-fluorochroman-4-yl)carbamate], the pEC50 is 6.28.

For the compound `Cn1nccc1COC(=O)N[C@H]1CCOc2c(C(=O)Nc3ccc(F)c(F)c3)cccc21` [Compound 100, (1-Methyl-1H-pyrazol-5-yl)methyl (S)-(8-((3,4-difluorophenyl)carbamoyl)chroman-4-yl)carbamate], the pEC50 is 5.59.

Take `CC(=O)NCCOC(=O)N[C@H]1CCOc2c(C(=O)Nc3ccc(F)c(C)c3)ccc(F)c21` [Compound 146, 2-Acetamidoethyl (S)-(5-fluoro-8-((4-fluoro-3-methylphenyl)carbamoyl)chroman-4-yl)carbamate]: the pEC50 was 6.21.

Turning to `COC(=O)N[C@H]1CCOc2c(C(=O)Nc3ccc(F)c(Cl)c3)cccc21` [Compound 32, Methyl (S)-(8-((3-chloro-4-fluorophenyl)carbamoyl)chroman-4-yl)carbamate], the pEC50 was 6.07.

Turning to `COC(=O)NC1CCNc2c(C(=O)Nc3ccc(F)c(Cl)c3)cccc21` (centres unmarked) [Compound 176, methyl (8-((3-chloro-4-fluorophenyl)carbamoyl)-1,2,3,4-tetrahydroquinolin-4-yl)carbamate], the pEC50 was 4.64.

Take `COC(=O)N[C@H]1CCOc2c(C(=O)Nc3ccc(F)c(OC)c3)ccc(F)c21` [Compound 128, Methyl (S)-(5-fluoro-8-((4-fluoro-3-methoxyphenyl)carbamoyl)chroman-4-yl)carbamate]: the pEC50 is 5.92.

On to `Cn1ccc(COC(=O)N[C@H]2CCOc3c(C(=O)Nc4ccc(F)c(F)c4)cccc32)n1` [Compound 72, (1-Methyl-1H-pyrazol-3-yl)methyl (S)-(8-((3,4-difluorophenyl)carbamoyl)chroman-4-yl)carbamate], for which the pEC50 is 5.70.

With `Cc1cc(NC(=O)c2ccc(F)c3c2OCC[C@@H]3NC(=O)OC[C@@H]2CCC(=O)N2C)ccc1F` [Compound 166, ((S)-1-Methyl-5-oxopyrrolidin-2-yl)methyl ((S)-5-fluoro-8-((4-fluoro-3-methylphenyl)carbamoyl)chroman-4-yl)carbamate], the pEC50 is 5.89.

Turning to `COC(=O)N[C@H]1CCOc2c(C(=O)Nc3cc(F)c(F)c(F)c3)cccc21` [Compound 45, Methyl (S)-(8-((3,4,5-trifluorophenyl)carbamoyl)chroman-4-yl)carbamate], the pEC50 was 5.92.

As for `COC(=O)N[C@H]1CCOc2c(C(=O)Nc3cccc(C#N)c3)cccc21` [Compound 43, Methyl (S)-(8-((3-cyanophenyl)carbamoyl)chroman-4-yl)carbamate], the pEC50 was 5.06.

`O=C(Nc1ccc(F)c(F)c1)c1ccc(Cl)c2c1OCCC2=O` [Compound 78, 5-chloro-N-(3,4-difluorophenyl)-4-oxochromane-8-carboxamide]: the negative-log EC50 (pEC50) was 5.14.

Regarding `COC(=O)N[C@H]1CCCc2c(C(=O)Nc3ccc(F)c(F)c3)cccc21` [Compound 184, Methyl (S)-(5-((3,4-difluorophenyl)carbamoyl)-1,2,3,4-tetrahydronaphthalen-1-yl)carbamate], the pEC50 was 5.06.

For the compound `O=C(Nc1ccc(F)c(F)c1)c1cccc2c1OCC[C@H]2O` [Compound 4, (R)-N-(3,4-difluorophenyl)-4-hydroxychromane-8-carboxamide], the pEC50 is 5.66.

With `O=C(N[C@H]1CCOc2c(C(=O)Nc3ccc(F)c(F)c3)cccc21)c1ccncc1` [Compound 16], the pEC50 is 4.89.

Still in this test, the particulars now being: Hepatitis B virus, HepDE19, 168 h, read-out: DE-19 bDNA EC50, HepDE19 cells, 7 day incubation, rcDNA by Quantigene 2.0 bDNA assay.
For the compound `CNC(=O)N[C@H]1CCOc2c1ccc(Cl)c2C(=O)Nc1ccc(F)c(F)c1` [Compound 84, (S)-7-Chloro-N-(3,4-difluorophenyl)-4-(3-methylureido)chromane-8-carboxamide], the negative logarithm of the EC50 (pEC50) is 4.96.

Take `COC(=O)N[C@H]1CCOc2c(C(=O)Nc3cccc(C(F)(F)F)c3)cccc21` [Compound 49]: the pEC50 is 4.96.

As to `CNC(=O)N[C@H]1CCOc2c(C(=O)Nc3ccc(F)c(F)c3)cccc21` [Compound 13, (S)—N-(3,4-difluorophenyl)-4-(3-methylureido) chromane-8-carboxamide], the pEC50 was 5.64.

For `COC(=O)N[C@H]1CCOc2c(C(=O)Nc3ccc(F)c(F)c3)c(F)cc(F)c21` [Compound 115, Methyl (S)-(8-((3,4-difluorophenyl)carbamoyl)-5,7-difluorochroman-4-yl)carbamate], the pEC50 was 6.10.

As for `CC(=O)N1CCC(COC(=O)N[C@H]2CCOc3c(C(=O)Nc4ccc(F)c(F)c4)cccc32)C1` (single isomer, unassigned) [Compound 144], the pEC50 is 5.27.

As for `COC(=O)N[C@@H]1CCOc2c(C(=O)Nc3ccc(F)c(F)c3)cccc21` [Compound 11, methyl (R)-(8-((3,4-difluorophenyl)carbamoyl)chroman-4-yl)carbamate], the negative logarithm of the EC50 (pEC50) was 4.68.

Regarding `COC(=O)N[C@H]1CCOc2c1ccc(F)c2C(=O)Nc1ccc(F)c(Cl)c1` [Compound 74, (S)-Methyl (8-((3-chloro-4-fluorophenyl)carbamoyl)-7-fluorochroman-4-yl)carbamate], the pEC50 was 5.72.

Consider `CNC(=O)N[C@H]1CCOc2c(C(=O)Nc3ccc(F)c(C)c3)ccc(F)c21` [Compound 122, (S)-5-fluoro-N-(4-fluoro-3-methylphenyl)-4-(3-methylureido)chromane-8-carboxamide], for which the pEC50 was 6.49.

Staying with this test, now noted: read-out: DE-19 bDNA EC50; HepDE19 cells, 7 day incubation, rcDNA by Quantigene 2.0 bDNA assay.
In the case of `COC(=O)NC1CCN(C)c2c(C(=O)Nc3ccc(F)c(Cl)c3)cccc21` (single isomer, unassigned) [Compound 178, Methyl (8-((3-chloro-4-fluorophenyl)carbamoyl)-1-methyl-1,2,3,4-tetrahydroquinolin-4-yl)carbamate], the pEC50 is 4.89.

Turning to `O=C(N[C@H]1CCOc2c(C(=O)Nc3ccc(F)c(F)c3)cccc21)OC1CCOC1` (single isomer, unassigned) [Compound 25, Tetrahydrofuran-3-yl-(8-((3,4-difluorophenyl)carbamoyl)chroman-4-yl)carbamate], the pEC50 was 4.64.
